The values that follow come from PMC7582905, “Effect of Disulfide Cyclization of Ultrashort Cationic Lipopeptides on Antimicrobial Activity and Cytotoxicity” (International Journal of Molecular Sciences, 2020).

Data set [1] has as its system Candida albicans ATCC 10231. Format: cell-based. The conditions noted are these: ATCC 10231, 24 h. The method in brief: (§1)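 MIC = lowest lipopeptide concentration (range 0.5–256 μg/mL) with no noticeable growth, scored by eye. Bacteria tested in MHB at 5 × 10^5 CFU/mL for 18 h; Candida in RPMI-1640 + 2% D-glucose at 2 × 10^3 CFU/mL for 24 h; both at 37 °C.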
For data set [2], the system named is Pseudomonas aeruginosa ATCC 9027. Format: cell-based. The conditions noted are these: ATCC 9027, 18 h. The method in brief: (§2)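 Broth microdilution per CLSI: bacteria at 5 × 10^5 CFU/mL in MHB, 18 h, and yeasts at 2 × 10^3 CFU/mL in RPMI-1640 with 2% D-glucose, 24 h, both at 37 °C, lipopeptides 0.5–256 μg/mL. MIC is lowest concentration visibly inhibiting growth; triplicate.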

Data set [3] concerns Staphylococcus epidermidis ATCC 14990. The class given is cell-based. The conditions noted are these: ATCC 14990, 18 h. The method in brief:
as §2

Data set [4] has as its system Candida tropicalis PCM 2709-FY. Format: cell-based. The settings on record: PCM 2709-FY, 24 h. The method in brief: as §1
The test system of data set [5] is Candida lipolytica PCM 2680-FY. Format: cell-based. The conditions noted are these: 24 h. In a few lines:
as §1

Data set [6] deals with Candida glabrata ATCC 15126. Format: cell-based. The conditions noted are these: ATCC 15126, 24 h. The method in brief: as §1
Data set [7] deals with Escherichia coli ATCC 25922. Format: cell-based. The settings on record: ATCC 25922, 18 h. In a few lines: as §1
Data set [8] concerns Candida albicans ATCC 10231. The class given is cell-based. The settings on record: ATCC 10231, 24 h. The method in brief: (§3)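 Resazurin reduction after 1 h, following three PBS washes, gave the MBIC. Before that, a roughly 500-fold diluted 24 h culture was incubated with graded lipopeptide concentrations for 24 h at 37 °C. Runs were in triplicate.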
The source holds these as a separate data set.

In data set [9] the test system is Pseudomonas aeruginosa ATCC 9027. Format: cell-based. The conditions noted are these: ATCC 9027, 24 h. The method in brief:
as §3

Data set [10] has as its system Staphylococcus epidermidis ATCC 14990. The class given is cell-based. The conditions noted are these: ATCC 14990, 24 h. In a few lines: as §3
In data set [11] the test system is Candida tropicalis PCM 2709-FY. The class given is cell-based. The settings on record: PCM 2709-FY, 24 h. The method in brief:
as §3
This is another data set of the same source.

The subject of data set [12] is Candida lipolytica PCM 2680-FY. The class given is cell-based. The settings on record: 24 h. In a few lines:
as §3
The source holds these as a separate data set.

The test system of data set [13] is Staphylococcus aureus ATCC 25923. The class given is cell-based. The settings on record: ATCC 25923, 24 h. In a few lines:
as §3

Data set [14] has as its system Candida glabrata ATCC 15126. The class given is cell-based. The conditions noted are these: ATCC 15126, 24 h. The method in brief:
as §3
This is another data set of the same source.

The subject of data set [15] is Escherichia coli ATCC 25922. Format: cell-based. The conditions noted are these: ATCC 25922, 24 h. The method in brief:
as §3

Data set [16] in a line: RP-HPLC determination of peptide hydrophobicity. Format: physicochemical. The conditions noted are these: RP-HPLC retention as measure of hydrophobicity; Waters X-Bridge Shield RP-18 3.0 × 100 mm, 3.5 μm; linear 20–65% acetonitrile in water over 30 min, 0.1% TFA, 0.5 mL/min, 25.0 °C, UV 214 nm; 1 g/L; triplicate. In a few lines:
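Reversed-phase HPLC on an X-Bridge Shield RP-18 column, peptides at 1 g/L in 0.1% TFA, linear 20–65% acetonitrile gradient (0.1% TFA) over 30 min, 0.5 mL/min, 25.0 °C, UV 214 nm. Hydrophobicity taken from reduced retention time; triplicate runs.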

Values after ≈ are worked out from the molar mass of the structure shown. Where a SMILES comes first, the peptide text is derived from it. The star is where a group is joined. Palmitoyl = CCCCCCCCCCCCCCCC(=O)*

Turning to `CCCCCCCCCCCCCCCC(=O)N[C@@H](CCCNC(=N)N)C(=O)N[C@@H](CCCNC(=N)N)C(=O)N[C@@H](CCCCN)C(=O)N[C@@H](CCCCN)C(N)=O` [L7, C16-RRKK-NH2] (Palmitoyl-RRKK-NH2), the “MIC C. albicans” value in data set [1] came out at 32 µg/mL (≈ 38.8 µM). Besides, the “MIC P. aeruginosa” value in [2] was 64 µg/mL (≈ 77.7 µM). Moreover, in data set [3], the “MIC S. epidermidis” value worked out at 4 µg/mL (≈ 4.85 µM). For the same compound, the “MIC C. tropicalis” value in [4] worked out at 8 µg/mL (≈ 9.71 µM). Also, the “MIC C. lipolytica” value in data set [5] was 8 µg/mL (≈ 9.71 µM). The “MIC C. glabrata” value in data set [6] was 16 µg/mL (≈ 19.4 µM). Besides, in data set [7], the “MIC E. coli” value was 8 µg/mL (≈ 9.71 µM). Besides, the “MBIC C. albicans” value in [8] turned out to be 32 µg/mL. In [9], the “MBIC P. aeruginosa” value stood at 64 µg/mL. Also, the “MBIC S. epidermidis” value in data set [10] is 16 µg/mL. Further, the “MBIC C. tropicalis” value in [11] worked out at 8 µg/mL. In addition, the “MBIC C. lipolytica” value in [12] was 16 µg/mL. For the same compound, the “MBIC S. aureus” value in data set [13] came out at 16 µg/mL. For the same compound, in data set [14], the “MBIC C. glabrata” value turned out to be 32 µg/mL. In addition, the “MBIC E. coli” value in [15] came out at 32 µg/mL. Moreover, in data set [16], the “reduced retention time t’R” value worked out at 15.58 min.
